“Also recorded” adds a separate entry of the source.
Experiments:
[1] = tested on: CCl4-induced liver fibrosis; experiment: CCl4-induced liver fibrosis model in mice (Masson Trichrome, ALT, gross morphology); assay type: in vivo, mouse
Description: Animal Care: All animal care and experimental procedures were approved by the Institutional Animal Care and Use Committee at the University of Connecticut. Shp^−/− mice were described previously. Hmgb2^−/− mice were obtained from Dr. Stella Tsirka at Stony Brook University. C57BL/6J mice were purchased from Jackson Laboratory. All mice were maintained on a 12-h light/dark cycle with free access to food and water unless otherwise indicated. For CCl4 treatment, CCl4 (Sigma) was dissolved in corn oil and administered to mice at a dose of 850 μl/kg BW by intraperitoneal injection (IP) twice a week for 6 or 10 weeks with or without ICM. Age-matched control mice were treated with a corn oil vehicle. For CCl4+ICM treatment, mice were treated with CCl4 for 2 weeks and then ICM (Department of Pharmaceutical Sciences at UConn) was dissolved in PEG (Sigma) and treated with mice (10 mg/kg) every day for 4 or 8 weeks in combination with CCl4. To induce overexpression of HMGB2 in liver, AAV8-Hmgb2 or a control AAV8-GFP was given to mice by tail vein injection at a dose of 5×10^10 GC. To knockdown HMGB2 in mouse livers, AAV-shHmgb2 or a control AAV-shGFP was delivered to mice at a dose of 2×10^10 GC by tail vein injection. One week later, mice injected with AAVs were treated with CCl4 or CCl4 +ICM as described above and sacrificed. Livers were removed and snap-frozen in liquid nitrogen for RNA and protein analysis. For the collection of mouse fetal livers, pregnant female mice were sacrificed at E12.5, E15, and E18.5 and livers were removed from the embryos. Additionally, post-natal mouse livers were harvested at postnatal day P1 and P60.
Histology: Livers were fixed in 10% neutral buffered formalin and embedded in paraffin. Liver blocks were cut at 5 μm and the sections were stained with hematoxylin and eosin (H&E) and Masson's trichrome according to standard procedures.
ALT and AST: Alanine transaminase (ALT) and Aspartate aminotransferase (AST) were measured by Infinity ALT (GPT) Liquid Stable Reagent and AST (GOT) Liquid Stable Reagent according to the manufacturer's instructions (Thermo Scientific).
For CCl4 treatment, CCl4 (Sigma) was dissolved in corn oil and administered to mice at a dose of 850 µl/kg BW by intraperitoneal injection (IP) twice a week for 6 or 10 weeks with or without ICM. Age-matched control mice were treated with a corn oil vehicle. For CCl4+ICM treatment, mice were treated with CCl4 for 2 weeks and then ICM (Department of Pharmaceutical Sciences at UConn) was dissolved in PEG (Sigma) and treated with mice (10 mg/kg) every day for 4 or 8 weeks in combination with CCl4. To induced overexpression of HMGB2 in liver, AAV8-Hmgb2 or a control AAV8-GFP was given to mice by tail vein injection at a dose of 5×10^10 GC. […]

[2] = tested on: TIC cells; experiment: TIC cell proliferation (micrograph); assay type: cell-based; conditions: 5 μM ICM versus DMSO (FIG. 14E)
Description: Cell culture, Cell transfection:HEK293T, Hela, Hep3B and MHCC97H cells were cultured and transfected using X-tremeGENE™ HP DNA transfection reagent (Roche) as described previously. CGR8 ES cells were cultured on 0.1% gelatin coated tissue-culture dish in knockout DMEM medium containing 15% ES qualified-Fetal Bovine Serum, 2 mM L-glutamin, 0.1 mM NEAA, 0.1 mM β-mercaptoethanol, 50 μg/ml penicillin-streptomycin and 10 ng/ml Leukemia inhibitory factor (LIF). TIC cells were cultured in DMEM-F12 medium containing Embryomax nucleotides, 2 mM L-glutamin, 0.1 mM NEAA, 20 ng/ml mouse EGF, 50 μg/ml penicillin-streptomycin and […].
FIG. 14A is Left, Western blot of HMGB2 and SOX2 protein in HEK293T cells transfected with 0.5 μg […] expression plasmid and 0, 1 or 2 μg Flag-HMGB2 expression plasmid. Right, Western blot of HMGB2 and OCT4 protein in HEK293T cells transfected with 0.5 μg HA-OCT4 expression plasmid and 0, 1 or 2 μg Flag-HMGB2 expression plasmid. […] CGR8 cells were lysed, co-immunoprecipitated with OCT4 antibody, followed by Western blot with HMGB2 or OCT4 antibodies. FIG. 14 C is a luciferase reporter assay. HepG2 cells were infected with AAV8-GFP or AAV8-HMGB2 24 hrs before being transfected with 6*OS luciferase reporter and OCT4, SOX2 expression plasmids alone or in combination.

CC1(C)Oc2cc(O)ccc2C2C1=CCn1c(=O)n(-c3ccccc3)c(=O)n12 (centres unmarked) [ICM, inflachromene]
liver gross morphology ([1]; ICM 10 mg/kg i.p. daily for 4 wks (FIG. 16B)): improved liver gross morphology
plasma ALT levels ([1]; ICM 10 mg/kg i.p. daily for 4 wks (FIG. 16C)): decreased plasma ALT levels
serum ALT ([1]; ICM (FIG. 5B)): decreases
liver fibrosis ([1]; ICM in PEG 10 mg/kg i.p. daily for 4 wks, Masson Trichrome staining): decreases; also recorded: diminished liver fibrosis
TIC cell proliferation [2]: decreases TIC cell proliferation

— patent publication US20180320177A1, “COMPOSITIONS AND METHODS FOR THE TREATMENT OF LIVER FIBROSIS” (UNIVERSITY OF CONNECTICUT, priority 2015, published 2018)
